What was measured:
Type in all cases: in vivo
Lolium perenne (LOLPE) [1] = test: Post-emergence herbicidal activity, glasshouse pot test; details: Lolium perenne, 312 h, rate 250 g/ha, evaluated after 13 days, glasshouse, read-out: Post-emergence activity LOLPE (100=total damage to plant; 0=no damage to plant)
Method: (§1) Seeds of a variety of test species were sown in standard soil in pots. After cultivation for one day (pre-emergence) or after 8 days cultivation (post-emergence) under controlled conditions in a glasshouse (at 24/16° C., day/night; 14 hours light; 65% humidity), the plants were sprayed with an aqueous spray solution derived from the formulation of the technical active ingredient in acetone/water (50:50) solution containing 0.5% Tween 20 (polyoxyethelyene sorbitan monolaurate, CAS RN 9005-64-5). The test plants were then grown in a glasshouse under controlled conditions in a glasshouse (at 24/16° C., day/night; 14 hours light; 65% humidity) and watered twice daily. After 13 days for pre and post-emergence, the test was evaluated (100=total damage to plant; 0=no damage to plant).
(§2) Lolium perenne (LOLPE), Alopecurus myosuroides (ALOMY), Echinochloa crus-galli (ECHCG), and Avena fatua (AVEFA).

Avena fatua (AVEFA) [2] = test: as above; details: Avena fatua, 312 h, rate 250 g/ha, evaluated after 13 days, glasshouse, read-out: Post-emergence activity AVEFA (100=total damage to plant; 0=no damage to plant)
Method: as §1, §2

[3] = test system: Echinochloa crus-galli (ECHCG); test: as above; details: Echinochloa crus-galli, 312 h, rate 250 g/ha, evaluated after 13 days, glasshouse, read-out: Post-emergence activity ECHCG (100=total damage to plant; 0=no damage to plant)
Method: as §1, §2

[4] = test system: Alopecurus myosuroides (ALOMY); test: as above; details: Alopecurus myosuroides, 312 h, rate 250 g/ha, evaluated after 13 days, glasshouse, read-out: Post-emergence activity ALOMY (100=total damage to plant; 0=no damage to plant)
Method: as §1, §2

Lolium perenne (LOLPE) [5] = test: Pre-emergence herbicidal activity, glasshouse pot test; details: Lolium perenne, 312 h; Rate 250 g/ha; pre-emergence spray; evaluated after 13 days; read-out: Pre-emergence activity LOLPE (100=total damage to plant; 0=no damage to plant)
Method: as §1, §2

Avena fatua (AVEFA) [6] = test: as above; details: Avena fatua, 312 h; Rate 250 g/ha; pre-emergence spray; evaluated after 13 days; read-out: Pre-emergence activity AVEFA (100=total damage to plant; 0=no damage to plant)
Method: as §1, §2

[7] = test system: Echinochloa crus-galli (ECHCG); test: as above; details: Echinochloa crus-galli, 312 h; Rate 250 g/ha; pre-emergence spray; evaluated after 13 days; read-out: Pre-emergence activity ECHCG (100=total damage to plant; 0=no damage to plant)
Method: as §1, §2

[8] = test system: Alopecurus myosuroides (ALOMY); test: as above; details: Alopecurus myosuroides, 312 h; Rate 250 g/ha; pre-emergence spray; evaluated after 13 days; read-out: Pre-emergence activity ALOMY (100=total damage to plant; 0=no damage to plant)
Method: as §1, §2

SMILES	pest or weed control at 250 g/ha (Lolium perenne (LOLPE) [1]) [%]	pest or weed control at 250 g/ha (Avena fatua (AVEFA) [2]) [%]	pest or weed control at 250 g/ha [3] [%]	pest or weed control at 250 g/ha [4] [%]	pest or weed control at 250 g/ha (Lolium perenne (LOLPE) [5]) [%]	pest or weed control at 250 g/ha (Avena fatua (AVEFA) [6]) [%]	pest or weed control at 250 g/ha [7] [%]	pest or weed control at 250 g/ha [8] [%]
CCc1ccc(Oc2ccc(Cl)cc2)cc1C1=C(O)[C@H]2CC[C@H](C2)C1=O (single isomer, unassigned) [Example A-88]	50	70	90	70	100	60	100	80
CCc1ccc(Oc2ccc(Cl)cc2F)cc1C1=C(O)[C@H]2CC[C@H](C2)C1=O (single isomer, unassigned) [Example A-89]	60	90	100	90	100	80	100	80
CCc1ccc(Oc2ccc(Cl)cc2Cl)cc1C1=C(O)[C@H]2CC[C@H](C2)C1=O (single isomer, unassigned) [Example A-90]	80	30	90	60	90	70	100	70
CCc1ccc(Oc2ccc(Br)cc2)cc1C1=C(O)[C@H]2CC[C@H](C2)C1=O (single isomer, unassigned) [Example A-91]	80	90	100	90	100	70	100	80
CCc1ccc(Oc2ccc(F)cc2)cc1C1=C(O)[C@H]2CC[C@H](C2)C1=O (single isomer, unassigned) [Example A-92]	30	10	80	20	90	30	100	40
CCc1ccc(Oc2ccc(Cl)c(F)c2)cc1C1=C(O)[C@@H]2CC[C@](C)(C1=O)C2(C)C (single isomer, unassigned) [Example A-93]	20	20	50	60	90	60	100	60
CCc1ccc(Oc2ccc(Cl)cc2Cl)cc1C1=C(O)[C@@H]2CC[C@](C)(C1=O)C2(C)C (single isomer, unassigned) [Example A-94]	20	0	40	10	100	20	90	40
CCc1ccc(Oc2ccc(Cl)cc2F)cc1C1=C(O)[C@@H]2CC[C@](C)(C1=O)C2(C)C (single isomer, unassigned) [Example A-95]	50	80	80	60	90	80	90	70
CCc1ccc(Oc2ccc(Cl)cc2)cc1C1=C(O)[C@@H]2CC[C@](C)(C1=O)C2(C)C (single isomer, unassigned) [Example A-96]	30	20	60	60	100	40	90	70

Reference: patent US8865623B2, “Herbicidally active cyclic diones and derivatives thereof, processes for their preparation, compositions, and method of controlling weeds” (Syngenta Limited, priority 2009, dated 2014)
